Values of other authors in patent US8691198B2, “Environmentally benign plasticizers based on derivatives of acetone” (priority 2010, dated 2014).
Where two headings read alike, the source gives them in different places.

Key:
[1] = degradation through oxidation forming phosphoric acid and the corresponding alcohols

## OCC1(O)COC(O)(CO)CO1 (centres unmarked) [1,3-dihydroxyacetone dimer]
rat; oral
  LD50 (oral, rat): sixty thousand

## CCCC(=O)O [Butyric acid]
rat; left half of Table 1
  LD50(rat): 2940 mg/kg

## CCCCCC(=O)O [Caproic acid]
rat; right half of Table 1
  LD50(rat) ×: 3000 mg/kg

## CCCCCCCC(=O)O [Caprylic acid]
rat; in vivo
  LD50(rat) ×: 600 mg/kg

## CC(CC(C)(C)C)CP(=O)(O)CC(C)CC(C)(C)C (centres unmarked) [Cyanex 272, Bis-(2,4,4-trimethylpentyl) phosphinic acid, reference compound]
[1]
  biodegradability: biodegradable
rat
  LD50(rat): 3500 mg/kg

## CCCCCCC(=O)O [Heptanoic Acid]
rat; right half of Table 1
  LD50(rat) ×: 7000 mg/kg

## CCCCC(=O)O [Pentanoic Acid]
rat; in vivo
  LD50(rat): 1844 mg/kg
